Source: PubChem BioAssay AID504587 (National Center for Advancing Translational Sciences (NCATS), 2011)

Tested on: Caco-2 bidirectional permeability, LC-MS/MS efflux ratio
Assay: Inhibitors of HPGD: Efflux Ratio Profiling
Details: active compounds read low
From the text: Human 15-Hydroxyprostaglandin dehydrogenase (HPGD) catalyzes the inactivation of prostaglandin E2, and plays a major role in cancer biology by antagonizing the oncogenic potential of cyclooxygenase type 2 (COX2). Assays are available, based on absorbance/fluorescence increase of NADH with the substrate 15-OH prostaglandin E2. This bioassays provides profiling data on Caco-2 cell permeability of leads compounds developed for the HPGD project. This in vitro model is often predictive of in vivo efflux of the compound by measuring the ratio of transport in and out the plasma membrane of the Caco2-cell line. NIH Chemical Genomics Center [NCGC] Structural Genomics Consortium [SGC]
1. Buffer Preparation: Prepare 1M HEPES: add 23.83g HEPES to 100ml of 0.85% NaCl Prepare HBSS+ buffer: add 12.8ml of 1M HEPES in 0.85% NaCl to 500ml HBSS buffer. 2. Take out the compounds from -80 degrees C, ultrasonicate or pre-warm for a few minutes to thaw the compounds. 3. Solution preparation Prepare donor buffer: For A-to-B direction: HBSS buffer with 0.3% DMSO and 5uM Lucifer Yellow (LY): add 150 µl DMSO and 50 µl LY (5mM) into 50ml HBSS buffer (pH 7.4). HBSS buffer with 0.1% DMSO and 5 µM Lucifer Yellow (LY): add 50 µl DMSO and 50 µl LY (5mM) into 50ml HBSS buffer (pH 7.4). […] The T0, LY and T90, LY plates are read by FlexStation 3 at excitation of 485 nm and emission of 535 nm to determine LY permeability. […]

| efflux ratio | Compound |
| --- | --- |
| 21 | Cc1cc(-c2nnc3n2CCCCC3)c(C)n1-c1ccccc1 |
| 15 | Cc1cccc(-n2cnc3cc(C(=O)N4CCCCC4)ccc32)c1 |
